Values of other authors as cited in US20040092565A1, “Composition and method of sustaining chemotherapeutic effect while reducing dose of chemotherapeutic agent using cox-2 inhibitor and statin” (priority 2001, published 2004).
Read-outs that look alike come from different tables or passages of the source. Each block holds one compound with its values, some of them ahead of it.

Tests used:
prostate cancer specimen = conditions: mice, in vivo
[1] = tested on: cisplatin-induced side effects; conditions: 5 g of glutathione immediately before cisplatin
[2] = tested on: Prostate Cancer Cell Line LNCaP; conditions: literature reports on LNCaP and human prostate carcinoma cells
[3] = package insert

Compound: CS(=O)(=O)Nc1ccc([N+](=O)[O-])cc1OC1CCCCC1 [NS398]
- angiogenesis of prostate cancer specimen (prostate cancer specimen): inhibit angiogenesis

Compound: N[C@@H](CCC(=O)N[C@@H](CS)C(=O)NCC(=O)O)C(=O)O [glutathione, gamma-Glu-Cys-Gly]
- intensity of hematologic toxicity ([1]; compared with control group): significantly less pronounced
- overall survival ([1]; vs. 10.5 months in the other group, no statistical difference): 13.5 months

Compound: CC[C@H](C)C(=O)O[C@H]1C[C@@H](C)C=C2C=C[C@H](C)[C@H](CC[C@@H]3C[C@@H](O)CC(=O)O3)[C@H]21 [lovastatin]
- therapeutic value in prostate cancer [2]: had therapeutic value in treating prostate cancer

- time to maximum plasma concentration ([3]; for some persons): 2 to 9 h
- time to maximum plasma concentration ([3]; on average): 2 to 3 h
Compound: CS(=O)(=O)c1ccc(C2=C(c3ccccc3)C(=O)OC2)cc1 [rofecoxib]
